Reference: the supplement of paper PMC10307832

What was measured:
Assay in all cases: relative viability (nuclei count vs DMSO), 5 days (fraction); higher = more cells survive
EPLC-272H = test system: EPLC-272H
Summary of the method: (§1)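 Lung cancer cell lines were seeded in 1536-well plates and dosed by pin tool the next day, with either a single drug or a fixed anchor-drug dose combined with five library-drug doses (not always all listed) spaced in √10 steps. Five days later, one step fixed the cells and stained their nuclei (final 0.05% Triton X-100, 1% formaldehyde, 1 ug/ml Hoechst), and nuclei were counted on 4× images. Relative viability is the nuclei count in treated wells divided by the count in vehicle wells, and each value is the median of duplicate plates.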

A-427 = test system: A-427
Summary of the method: as §1

EKVX = test system: EKVX
Summary of the method: as §1

LXF-289 = test system: LXF-289
Summary of the method: as §1

HCC-827 = test system: HCC-827
Summary of the method: as §1

NCI-H1650 = test system: NCI-H1650
Summary of the method: as §1

SW 1573 = test system: SW 1573
Summary of the method: as §1

NCI-H358 = test system: NCI-H358
Summary of the method: as §1

COR-L23 = test system: COR-L23
Summary of the method: as §1

NCI-H460 = test system: NCI-H460
Summary of the method: as §1

NCI-H1651 = test system: NCI-H1651
Summary of the method: as §1

NCI-H2126 = test system: NCI-H2126
Summary of the method: as §1

HCC-44 = test system: HCC-44
Summary of the method: as §1

NCI-H1915 = test system: NCI-H1915
Summary of the method: as §1

LK-2 = test system: LK-2
Summary of the method: as §1

NCI-H2087 = test system: NCI-H2087
Summary of the method: as §1

201T = test system: 201T
Summary of the method: as §1

LCLC-103H = test system: LCLC-103H
Summary of the method: as §1

BEN = test system: BEN
Summary of the method: as §1

EMC-BAC-2 = test system: EMC-BAC-2
Summary of the method: as §1

NCI-H596 = test system: NCI-H596
Summary of the method: as §1

NCI-H2347 = test system: NCI-H2347
Summary of the method: as §1

`O=C(O)CCCCC(CCSCc1ccccc1)SCc1ccccc1` (stereo not given) [CPI-613] + C[C@@H](Oc1cc(-c2cnn(C3CCNCC3)c2)cnc1N)c1c(Cl)ccc(F)c1Cl [Crizotinib] (partner 1 µM) was tested, and the relative viability (EPLC-272H; first compound 5 µM) was 0.9, the relative viability (EPLC-272H; first compound 15.81 µM) was 0.925 and the relative viability (EPLC-272H; first compound 50 µM) was 1.03. The relative viability (EPLC-272H; first compound 158.11 µM) was 0.855, the relative viability (EPLC-272H; first compound 500 µM) was 1.07 and the relative viability (A-427; first compound 5 µM) was 0.89. It also gave a relative viability (A-427; first compound 15.81 µM) of 0.885, a relative viability (A-427; first compound 50 µM) of 0.754 and a relative viability (A-427; first compound 158.11 µM) of 0.175. For the same molecule, the relative viability (A-427; first compound 500 µM) was 0.126, the relative viability (EKVX; first compound 5 µM) was 0.885 and the relative viability (EKVX; first compound 15.81 µM) was 0.817. It also gave a relative viability (EKVX; first compound 50 µM) of 0.891, a relative viability (EKVX; first compound 158.11 µM) of 1.02 and a relative viability (EKVX; first compound 500 µM) of 0.952. The relative viability (LXF-289; first compound 5 µM) was 0.776, the relative viability (LXF-289; first compound 15.81 µM) was 0.764 and the relative viability (LXF-289; first compound 50 µM) was 0.73. For the same molecule, the relative viability (LXF-289; first compound 158.11 µM) was 0.295, the relative viability (LXF-289; first compound 500 µM) was 0.0479 and the relative viability (HCC-827; first compound 5 µM) was 0.878. For the same molecule, the relative viability (HCC-827; first compound 15.81 µM) was 0.906, the relative viability (HCC-827; first compound 50 µM) was 0.843 and the relative viability (HCC-827; first compound 158.11 µM) was 0.412. It also gave a relative viability (HCC-827; first compound 500 µM) of 0.225, a relative viability (NCI-H1650; first compound 5 µM) of 0.991 and a relative viability (NCI-H1650; first compound 15.81 µM) of 0.854. It also gave a relative viability (NCI-H1650; first compound 50 µM) of 0.853, a relative viability (NCI-H1650; first compound 158.11 µM) of 0.579 and a relative viability (NCI-H1650; first compound 500 µM) of 0.0088. It also gave a relative viability (SW 1573; first compound 5 µM) of 0.81, a relative viability (SW 1573; first compound 15.81 µM) of 0.749 and a relative viability (SW 1573; first compound 50 µM) of 0.878. It also gave a relative viability (SW 1573; first compound 158.11 µM) of 0.819, a relative viability (SW 1573; first compound 500 µM) of 0.419 and a relative viability (NCI-H358; first compound 5 µM) of 0.659. The relative viability (NCI-H358; first compound 15.81 µM) was 0.606, the relative viability (NCI-H358; first compound 50 µM) was 0.501 and the relative viability (NCI-H358; first compound 158.11 µM) was 0.104. The relative viability (NCI-H358; first compound 500 µM) was 0.0191, the relative viability (COR-L23; first compound 5 µM) was 0.635 and the relative viability (COR-L23; first compound 15.81 µM) was 0.598. It also gave a relative viability (COR-L23; first compound 50 µM) of 0.647, a relative viability (COR-L23; first compound 158.11 µM) of 0.226 and a relative viability (COR-L23; first compound 500 µM) of 0.0141. The relative viability (NCI-H460; first compound 5 µM) was 0.889, the relative viability (NCI-H460; first compound 15.81 µM) was 0.892 and the relative viability (NCI-H460; first compound 50 µM) was 0.728. The relative viability (NCI-H460; first compound 158.11 µM) was 0.115, the relative viability (NCI-H460; first compound 500 µM) was 0.0085 and the relative viability (NCI-H1651; first compound 5 µM) was 0.838. It also gave a relative viability (NCI-H1651; first compound 15.81 µM) of 0.769, a relative viability (NCI-H1651; first compound 50 µM) of 0.922 and a relative viability (NCI-H1651; first compound 158.11 µM) of 0.818. For the same molecule, the relative viability (NCI-H1651; first compound 500 µM) was 0.927, the relative viability (NCI-H2126; first compound 5 µM) was 1.01 and the relative viability (NCI-H2126; first compound 15.81 µM) was 0.999. The relative viability (NCI-H2126; first compound 50 µM) was 0.942, the relative viability (NCI-H2126; first compound 158.11 µM) was 0.706 and the relative viability (NCI-H2126; first compound 500 µM) was 0.23. The relative viability (HCC-44; first compound 5 µM) was 0.834, the relative viability (HCC-44; first compound 15.81 µM) was 0.791 and the relative viability (HCC-44; first compound 50 µM) was 0.785. The relative viability (HCC-44; first compound 158.11 µM) was 0.295, the relative viability (HCC-44; first compound 500 µM) was 0.0369 and the relative viability (NCI-H1915; first compound 5 µM) was 0.895. It also gave a relative viability (NCI-H1915; first compound 15.81 µM) of 0.93, a relative viability (NCI-H1915; first compound 50 µM) of 0.809 and a relative viability (NCI-H1915; first compound 158.11 µM) of 0.678. For the same molecule, the relative viability (NCI-H1915; first compound 500 µM) was 0.446, the relative viability (LK-2; first compound 5 µM) was 0.225 and the relative viability (LK-2; first compound 15.81 µM) was 0.191. It also gave a relative viability (LK-2; first compound 50 µM) of 0.227, a relative viability (LK-2; first compound 158.11 µM) of 0.219 and a relative viability (LK-2; first compound 500 µM) of 0.249. It also gave a relative viability (NCI-H2087; first compound 5 µM) of 0.909, a relative viability (NCI-H2087; first compound 15.81 µM) of 0.706 and a relative viability (NCI-H2087; first compound 50 µM) of 0.706. It also gave a relative viability (NCI-H2087; first compound 158.11 µM) of 0.132, a relative viability (NCI-H2087; first compound 500 µM) of 0.0499 and a relative viability (201T; first compound 5 µM) of 1.04. It also gave a relative viability (201T; first compound 15.81 µM) of 0.989, a relative viability (201T; first compound 50 µM) of 0.94 and a relative viability (201T; first compound 158.11 µM) of 0.93. The relative viability (201T; first compound 500 µM) was 0.984, the relative viability (LCLC-103H; first compound 5 µM) was 1.11 and the relative viability (LCLC-103H; first compound 15.81 µM) was 1.1. The relative viability (LCLC-103H; first compound 50 µM) was 0.917, the relative viability (LCLC-103H; first compound 158.11 µM) was 0.855 and the relative viability (LCLC-103H; first compound 500 µM) was 0.861. The relative viability (BEN; first compound 5 µM) was 0.802, the relative viability (BEN; first compound 15.81 µM) was 0.739 and the relative viability (BEN; first compound 50 µM) was 0.807. For the same molecule, the relative viability (BEN; first compound 158.11 µM) was 0.743, the relative viability (BEN; first compound 500 µM) was 0.769 and the relative viability (EMC-BAC-2; first compound 5 µM) was 0.753. It also gave a relative viability (EMC-BAC-2; first compound 15.81 µM) of 0.708, a relative viability (EMC-BAC-2; first compound 50 µM) of 0.83 and a relative viability (EMC-BAC-2; first compound 158.11 µM) of 0.494. It also gave a relative viability (EMC-BAC-2; first compound 500 µM) of 0.267, a relative viability (NCI-H596; first compound 5 µM) of 0.959 and a relative viability (NCI-H596; first compound 15.81 µM) of 0.966. The relative viability (NCI-H596; first compound 50 µM) was 1.1, the relative viability (NCI-H596; first compound 158.11 µM) was 0.589 and the relative viability (NCI-H596; first compound 500 µM) was 0.0472. For the same molecule, the relative viability (NCI-H2347; first compound 5 µM) was 0.645, the relative viability (NCI-H2347; first compound 15.81 µM) was 0.555 and the relative viability (NCI-H2347; first compound 50 µM) was 0.695. The relative viability (NCI-H2347; first compound 158.11 µM) was 0.669 and the relative viability (NCI-H2347; first compound 500 µM) was 0.55.
